Laboratory results: US11512089B2, “Substituted [1,2,4]triazolo[3,4-a]phthalazines as modulators of GABAA receptor activity” (SHANGHAI SIMR BIOTECHNOLOGY CO., LTD, priority 2018, dated 2022)
≈ marks a conversion by molar mass, not a printed value.

Tests used:
[1] = biological target: T1, α5-GABAA receptor (Homo sapiens, UniProt P18507+P31644); test: Whole cell patch clamp, inverse agonism efficacy on GABA-induced current in HEK-293 cells expressing α5-GABAA receptor; type: cell-based; conditions: HEK293; compound 100 nM, GABA 0.05 μM; ratio to reference compound Example 7 in CN106854207A in the same batch
T1 construct: expressed in transfected cells; host or cells: HEK-293 (monoclonal, stably transfected)
Procedure: The inventors used electrophysiological methods to determine the inverse agonist efficacy of the substances to be tested. The detailed procedures are as follows:
(1) Different subunits of GABAA receptors were expressed in human embryonic kidney cells 293 (HEK293). The cells were cultured in a culture medium and used as a cell model for screening potential analgesics. The α, β and γ subunits are necessary to form complete functional GABAA receptors. In this example, the inventors have established the following cell model: (a) α5 subunit (protein sequence is GenBank accession number: NM_000810.3), (33 subunit (protein sequence is GenBank accession number: NM_000814.5) and γ2 subunit (protein sequence is GenBank accession number: NM_000816.3) were expressed in HEK-293 cell line at the same time, followed by screening the monoclonal cell line. This cell line contained α5-GABAA receptor and had complete GABAA receptor function.
(2) The monoclonal stably transfected HEK-293 cells expressing α5-GABAA receptor were cultured in 10 cm culture dishes. The cells were passaged after reaching 80-90% confluence. During passaging, the culture medium was removed and discarded, 3 mL of DPBS (phosphate buffered saline, Gibco™) was added to the dishes, the dishes were shaken slightly, and DPBS was removed and discarded. 1 mL of trypsin (TrypLE Express, Gibco™) was added and the cells were digested at 37° C. for 1-2 minutes. Then 3 mL of complete medium (DMEM+10% FBS (Gibco™)) was added and the cells at the bottom of the culture dishes were dispersed. The cell suspension were transferred to a 15 mL centrifugal tube (Corning™) and then centrifuged at 200 g for 3 minutes. The supernatant was discarded, 4 mL of complete medium was added, and the cells were resuspended by gently blowing. The cell suspension was diluted by 1:5 or 1:10 for subculturing. The cell suspension was diluted by 1:12 for electrophysiology experiment, and added to a 24 well plate (Corning™) with a glass slide pre-treated with poly-D-lysine placed thereon; the experiment was initiated after the cells were adhered to the slide. The cells for electrophysiology experiment were maintained in culture for no more than 48 hours before use.
(3) Compound concentration: for screening, all compounds were diluted to a final concentration of 100 nM and the concentration of GABA was 0.05 μM. The compounds were at the concentration of 0.3 nM, 3 nM, 10 nM, 30 nM, 100 nM and 300 nM in dose-inverse agonism efficacy (%) experiment. The whole cell patch clamp technique was used in electrophysiology experiments, which can refer to the literature (I. Lecker, Y. Yin, D. S. Wang and B. A. Orser, (2013) Potentiation of GABAA receptor activity by volatile anaesthetics is reduced by α5-GABAA receptor-preferring inverse agonists, British Journal of Anaesthesia 110 (S1): i73-i81). The extracellular solution (ECS) contained: 150 mM NaCl, 5 mM KCl, 2.5 mM CaCl2, 1 mM MgCl2, 10 mM HEPES and 10 mM glucose (pH 7.4); Patch electrodes were filled with an intracellular solution containing: 140 mM CsCl, 11 mM EGTA, 10 mM HEPES, 2 mM CaCl2, 1 mM MgCl2, 4 mM MgATP, 2 mM TEA (pH 7.3). The currents were recorded by an EPC-10 amplifier and the PatchMaster software (HEKA). Patch electrodes with a resistance of 4-6 MΩ were pulled from borosilicate glass. The ALA-VC3-8PP™ system was used for extracellular administration. Separate cells that grew independently was selected for recording. During recording, the membrane voltage was clamped at −60 mV. During experiment, the cells were firstly perfused with ECS for 20 seconds. When the baseline reached to a stable state, the cells were then perfused with GABA solution. Then the current induced by GABA could be detected. After about 20 to 40 seconds, the current was stable. ECS was switched to compounds solution and the effects of the compounds were detected. At last, the perfusion solution was switched to ECS. […]

[2] = Kinetic solubility in 50 mM phosphate buffer pH 7.4; type: physicochemical; conditions: aqueous buffer, kinetic from dmso stock, 50 mM phosphate buffer pH 7.4, 2% DMSO, room temperature
Procedure: 50 mM phosphate buffer pH=7.4: 0.39 g of NaH2PO4.2H2O, and 1.4025 g of Na2HPO4 were weighted and placed in an erlenmeyer flask, 240 mL of water was added. The solid was dissolved and mixed thoroughly, the pH value was adjusted to 7.4 with 10M NaOH solution, and the resulting solution was transferred to a 250 mL volumetric flask, followed by adding water to the mark.
Waters e2695 HPLC high performance liquid chromatography, Mettler XSE105 analytical balance.
Firstly, a 10 mM stock solution with DMSO as the solvent was prepared, and was diluted with a diluent (ACN: PB buffer 50:50) into 1 μM-200 μM as standard solution.
Kinetic solubility. 30 μL of the stock solution was placed in a 2 mL centrifuge tube, 1470 μL of 50 mM phosphate buffer (pH 7.4) (containing DMSO at a final concentration of 2%) was added. The mixture was shaken at room temperature (1000 rpm/min) for 24 hours, and then filtered. The filtrate was tested by high performance liquid chromatography (UV).

T1 sequence (P31644 32-462): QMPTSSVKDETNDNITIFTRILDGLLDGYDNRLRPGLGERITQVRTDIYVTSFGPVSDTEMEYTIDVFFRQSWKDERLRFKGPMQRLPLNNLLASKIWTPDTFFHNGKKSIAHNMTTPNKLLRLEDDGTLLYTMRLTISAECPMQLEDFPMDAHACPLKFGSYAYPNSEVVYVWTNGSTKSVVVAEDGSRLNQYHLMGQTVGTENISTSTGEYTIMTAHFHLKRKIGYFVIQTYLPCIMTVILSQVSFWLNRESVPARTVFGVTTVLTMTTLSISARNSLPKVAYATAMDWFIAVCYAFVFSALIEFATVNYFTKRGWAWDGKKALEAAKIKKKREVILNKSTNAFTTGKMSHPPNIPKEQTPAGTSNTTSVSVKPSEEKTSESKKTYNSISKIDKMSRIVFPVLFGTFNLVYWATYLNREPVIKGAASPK
T1 sequence (P28472 26-473 partner): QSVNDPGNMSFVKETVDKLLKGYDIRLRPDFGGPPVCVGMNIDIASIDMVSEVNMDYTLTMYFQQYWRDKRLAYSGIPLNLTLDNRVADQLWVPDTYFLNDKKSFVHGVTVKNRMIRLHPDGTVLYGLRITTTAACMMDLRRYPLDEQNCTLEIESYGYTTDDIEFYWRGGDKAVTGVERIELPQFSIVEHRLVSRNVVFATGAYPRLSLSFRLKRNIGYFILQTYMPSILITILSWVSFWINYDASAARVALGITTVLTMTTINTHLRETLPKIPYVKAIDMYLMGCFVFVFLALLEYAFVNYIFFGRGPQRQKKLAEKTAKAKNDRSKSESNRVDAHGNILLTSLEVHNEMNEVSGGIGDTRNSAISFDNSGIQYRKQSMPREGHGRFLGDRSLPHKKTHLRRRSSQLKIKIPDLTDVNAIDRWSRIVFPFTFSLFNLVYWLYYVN
T1 sequence (P18507 40-467 isoform P18507-1 limits assumed): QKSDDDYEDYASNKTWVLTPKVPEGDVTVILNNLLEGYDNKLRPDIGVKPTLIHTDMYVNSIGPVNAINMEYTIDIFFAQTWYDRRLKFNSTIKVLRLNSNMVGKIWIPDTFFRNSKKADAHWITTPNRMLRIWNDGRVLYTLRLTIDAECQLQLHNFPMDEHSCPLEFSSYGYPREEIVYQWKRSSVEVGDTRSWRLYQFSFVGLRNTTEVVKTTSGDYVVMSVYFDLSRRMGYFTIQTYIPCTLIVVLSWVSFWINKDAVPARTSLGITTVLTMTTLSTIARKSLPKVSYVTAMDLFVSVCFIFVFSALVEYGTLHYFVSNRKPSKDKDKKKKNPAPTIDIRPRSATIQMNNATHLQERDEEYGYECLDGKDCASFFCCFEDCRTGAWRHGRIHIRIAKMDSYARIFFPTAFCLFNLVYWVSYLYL

SMILES | Emax at 0.1 µM [1] [%] | solubility kinetic at 24 h [2] [µg/mL]
COCc1cc(-c2nnc3c4ccccc4c(OCc4ccc(C(=O)NC5CC(F)(F)C5)cn4)nn23)no1 [Compound 03, N-(3,3-difluoro-cyclobutyl)-6-[3-(5-methoxymethyl-isoxazol-3-yl)-[1,2,4]triazolo[3,4-a]phthalazin-6-yloxymethyl]-nicotinamide] | 92.1 | –
COCc1cc(-c2nnc3c4ccccc4c(OCc4ccc(C(=O)NC5CCOCC5)cn4)nn23)no1 [Compound 04, 6-[3-(5-methoxymethyl-isoxazol-3-yl)-[1,2,4]triazolo[3,4-a]phthalazin-6-yloxymethyl]-N-(tetrahydro-pyran-4-yl)-nicotinamide] | – | 13.1 (≈ 25.5 µM)
COCCCNC(=O)c1ccc(COc2nn3c(-c4cc(COC)on4)nnc3c3ccccc23)nc1 [Compound 08, 6-[3-(5-methoxymethyl-isoxazol-3-yl)-[1,2,4]triazolo[3,4-a]phthalazin-6-yloxymethyl]-N-(3-methoxy-propyl)-nicotinamide] | 110 | –
COCc1cc(-c2nnc3c4ccccc4c(OCc4ccc(C(=O)N[C@H](C)COC)cn4)nn23)no1 [Compound 09, (R)—N-(2-methoxy-1-methyl-ethyl)-6-[3-(5-methoxymethyl-isoxazol-3-yl)-[1,2,4]triazolo[3,4-a]phthalazin-6-yloxymethyl]-nicotinamide] | – | 27.7 (≈ 55 µM)
COCc1cc(-c2nnc3c4ccccc4c(OCc4ccc(C(=O)NCCOC(F)(F)F)cn4)nn23)no1 [Compound 13, 6-[3-(5-methoxymethyl-isoxazol-3-yl)-[1,2,4]triazolo[3,4-a]phthalazin-6-yloxymethyl]-N-(2-trifluoromethoxy-ethyl)-nicotinamide] | – | 0.57 (≈ 1.05 µM)
COCc1cc(-c2nnc3c4ccccc4c(OCc4ccc(C(=O)NC(C)(C)COC)cn4)nn23)no1 [Compound 14, N-(2-methoxy-1,1-dimethyl-ethyl)-6-[3-(5-methoxymethyl-isoxazol-3-yl)-[1,2,4]triazolo[3,4-a]phthalazin 6-yloxymethyl]-nicotinamide] | – | 35.7 (≈ 68.9 µM)
COCc1cc(-c2nnc3c4ccccc4c(OCc4ccc(C(=O)NCCO)cn4)nn23)no1 [Compound 16, N-(2-hydroxy-ethyl)-6-[3-(5-methoxymethyl-isoxazol-3-yl)-[1,2,4]triazolo[3,4-a]phthalazin-6-yloxymethyl]-nicotinamide] | – | 49.4 (≈ 104 µM)
COCc1cc(-c2nnc3c4ccccc4c(OCc4ccc(C(=O)NC5COC5)cn4)nn23)no1 [Compound 17, 6-[3-(5-methoxymethyl-isoxazol-3-yl)-[1,2,4]triazolo[3,4-a]phthalazin-6-yloxymethyl]-N-oxetan-3-yl-nicotinamide] | 105 | –
COCc1cc(-c2nnc3c4ccccc4c(OCc4ccc(C(=O)NC5(C#N)CC5)cn4)nn23)no1 [Compound 19] | – | 1.06 (≈ 2.14 µM)
COCc1cc(-c2nnc3c4ccccc4c(OCc4ccc(C(=O)NC5CC(F)C5)cn4)nn23)no1 (centres unmarked) [Compound 21] | – | 1.18 (≈ 2.34 µM)
COCc1cc(-c2nnc3c4ccccc4c(OCc4ccc(C(=O)NCCF)cn4)nn23)no1 [Compound 22] | – | 8.92 (≈ 18.7 µM)
COCc1cc(-c2nnc3c4ccccc4c(OCc4ccc(C(=O)NCC(F)(F)CO)cn4)nn23)no1 [Compound 25] | – | 2.71 (≈ 5.16 µM)
COCc1cc(-c2nnc3c4ccccc4c(OCc4ccc(C(=O)NC5CCOC5)cn4)nn23)no1 (centres unmarked) [Compound 26, 6-[3-(5-methoxymethyl-isoxazol-3-yl)-[1,2,4]triazolo[3,4-a]phthalazin-6-yloxymethyl]-N-(tetrahydrofuran-3-yl)-nicotinamide] | – | 20.3 (≈ 40.6 µM)
COCc1cc(-c2nnc3c4ccccc4c(OCc4ccc(C(=O)NC(C)C(F)(F)F)cn4)nn23)no1 (centres unmarked) [Compound 27] | – | 5.58 (≈ 10.6 µM)
COCc1cc(-c2nnc3c4ccccc4c(OCc4ccc(C(=O)NC5CCC(F)(F)CC5)cn4)nn23)no1 [Compound 33] | – | 2.99 (≈ 5.44 µM)
COCc1cc(-c2nnc3c4ccccc4c(OCc4ccc(C(=O)NC5CCC(F)(F)C5)cn4)nn23)no1 (centres unmarked) [Compound 35] | – | 5.62 (≈ 10.5 µM)
COCc1cc(-c2nnc3c4ccccc4c(OCc4ccc(C(N)=O)cn4)nn23)no1 [Compound 36] | – | 0.8 (≈ 1.85 µM)
COCc1cc(-c2nnc3c4ccccc4c(OCc4ccc(C(=O)N5CC(O)C5)cn4)nn23)no1 [Compound 41] | – | 6.57 (≈ 13.5 µM)
COCc1cc(-c2nnc3c4ccccc4c(OCc4ccc(C(=O)N5CC(C)OC(C)C5)cn4)nn23)no1 (centres unmarked) [Compound 44] | – | 74.6 (≈ 141 µM)
COCc1cc(-c2nnc3c4ccccc4c(OCc4ccc(C(=O)N5CC(F)(F)C5)cn4)nn23)no1 [Compound 46, (3,3-difluoroazetidin-1-yl)(6-(((3-(5-(methoxymethyl)isoxazol-3-yl)[1,2,4]triazolo[3,4-a]phthalazin-6-yl)oxy)methyl)pyridin-3-yl)methanone] | 94.6 | –
COCc1cc(-c2nnc3c4ccccc4c(OCc4ccc(C(=O)N5CCCCC5)cn4)nn23)no1 [Compound 49, (6-(((3-(5-(methoxymethyl)isoxazol-3-yl)-[1,2,4]triazolo[3,4-a]phthalazin-6-yl)oxy)methyl)pyridin-3-yl)(piperidin-1-yl)methanone] | 75.2 | –
COCc1cc(-c2nnc3c4ccccc4c(OCc4ccc(C(=O)N(C)C5CC5)cn4)nn23)no1 [Compound 50] | – | 3.75 (≈ 7.72 µM)
COCc1cc(-c2nnc3c4ccccc4c(OCc4ccc(C(=O)N5CCC(F)(F)C5)cn4)nn23)no1 [Compound 51] | – | 5.62 (≈ 10.8 µM)
COCCN(CCOC)C(=O)c1ccc(COc2nn3c(-c4cc(COC)on4)nnc3c3ccccc23)nc1 [Compound 52] | – | 51.9 (≈ 94.7 µM)
COCc1cc(-c2nnc3c4ccccc4c(OCc4ccc(C(=O)N5CCN(C)C(=O)C5)cn4)nn23)no1 [Compound 53] | – | 28 (≈ 53 µM)
COCc1cc(-c2nnc3c4ccccc4c(OCc4ccc(C(=O)N5CCCOCC5)cn4)nn23)no1 [Compound 55] | – | 102 (≈ 197 µM)
COCc1cc(-c2nnc3c4ccccc4c(OCc4ccc(C(=O)N5CCC(OC)CC5)cn4)nn23)no1 [Compound 57, (6-(((3-(5-(methoxymethyl)isoxazol-3-yl)-[1,2,4]triazolo[3,4-a]phthalazin-6-yl)oxy)methyl)pyridin-3-yl)(4-methoxypiperidin-1-yl)methanone] | – | 26.5 (≈ 50 µM)
COCc1cc(-c2nnc3c4ccccc4c(OCc4ccc(C(=O)N(C)CC(F)(F)F)cn4)nn23)no1 [Compound 58] | – | 1.46 (≈ 2.77 µM)
Cc1cc(-c2nnc3c4ccccc4c(OCc4ccc(C(=O)NC5CCOCC5)cn4)nn23)no1 [reference compound] | – | 3.88 (≈ 7.99 µM)
